Test results as given in ChEMBL document CHEMBL1201862, “PubChem BioAssay data set” (2004).
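1) Cells in 96-well plates. 2) Compound, 48 h, 5 concentrations. 3) Linear interpolation between surrounding doses. 4) Unreached endpoint = highest concentration. GI50: concentration for 50% inhibition of growth.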 The source made the active and inactive calls. Rule as the data show it: active = GI50 up to about 1.1 µM and inactive = higher.

Assays:
Test in all cases: growth of human tumour cells (NCI), 48 h
UACC-257 = test system: UACC-257
786-0 = test system: 786-0
SN12C = test system: SN12C
MDA-MB-231 = test system: MDA-MB-231
M14 = test system: M14
RPMI-8226 = test system: RPMI-8226
SNB-19 = test system: SNB-19
CAKI-1 = test system: CAKI-1
Malme-3M = test system: Malme-3M
ACHN = test system: ACHN
KM12 = test system: KM12
BT-549 = test system: BT-549
U-251 = test system: U-251
LOX IMVI = test system: LOX IMVI
SW-620 = test system: SW-620
K562 = test system: K562
SF-539 = test system: SF-539
A549 = test system: A549
NCI-H23 = test system: NCI-H23
Hs-578T = test system: Hs-578T
A498 = test system: A498
HOP-62 = test system: HOP-62
IGROV-1 = test system: IGROV-1
OVCAR-5 = test system: OVCAR-5
HT-29 = test system: HT-29
SR = test system: SR
NCI-H460 = test system: NCI-H460
OVCAR-4 = test system: OVCAR-4
OVCAR-3 = test system: OVCAR-3
HOP-92 = test system: HOP-92
MCF7 = test system: MCF7
TK-10 = test system: TK-10
HCT-15 = test system: HCT-15
SF-295 = test system: SF-295
SK-MEL-28 = test system: SK-MEL-28
MOLT-4 = test system: MOLT-4
EKVX = test system: EKVX
HL-60 = test system: HL-60
HCT-116 = test system: HCT-116
PC-3 = test system: PC-3
NCI/ADR-RES = test system: NCI/ADR-RES
SF-268 = test system: SF-268
UO-31 = test system: UO-31
MDA-MB-435 = test system: MDA-MB-435
SK-MEL-2 = test system: SK-MEL-2
RXF 393 = test system: RXF 393
OVCAR-8 = test system: OVCAR-8
HCC 2998 = test system: HCC 2998
DU-145 = test system: DU-145
MDA-N = test system: MDA-N
NCI-H226 = test system: NCI-H226
NCI-H522 = test system: NCI-H522
COLO 205 = test system: COLO 205
UACC-62 = test system: UACC-62
SK-MEL-5 = test system: SK-MEL-5
CCRF-CEM = test system: CCRF-CEM
SK-OV-3 = test system: SK-OV-3
SNB-75 = test system: SNB-75

With `C/C(NC(=O)c1ccccc1)=C(/C(=O)c1ccccc1)[C@@H]1OC(C)(C)O[C@@H]1[C@H]1COC(C)(C)O1` as the compound, how does the GI50 (UACC-257) read?
The GI50 was 30.8 µM (inactive).

What about the GI50 (786-0) of the same compound?
The GI50 was 18.3 µM (inactive).

What about the GI50 (SN12C) of the same compound?
Its GI50 is 25.2 µM (inactive).

And the GI50 (MDA-MB-231)?
The GI50 was 23.7 µM (inactive).

What about the GI50 (M14) of the same compound?
Its GI50 is 30.8 µM (inactive).

And the GI50 (RPMI-8226)?
Its GI50 is 14.9 µM (inactive).

And the GI50 (SNB-19)?
The GI50 was 46.2 µM (inactive).

What about the GI50 (CAKI-1) of the same compound?
The GI50 was 29.3 µM (inactive).

What about the GI50 (Malme-3M) of the same compound?
The GI50 was 37.6 µM (inactive).

And the GI50 (ACHN)?
The GI50 was 67.3 µM (inactive).

And the GI50 (KM12)?
The GI50 was 28.6 µM (inactive).

What about the GI50 (BT-549) of the same compound?
The GI50 was 25.8 µM (inactive).

What about the GI50 (U-251) of the same compound?
The GI50 was 30.9 µM (inactive).

And the GI50 (LOX IMVI)?
Its GI50 is 19.9 µM (inactive).

And the GI50 (SW-620)?
The GI50 was 20.3 µM (inactive).

And the GI50 (K562)?
Its GI50 is 20.9 µM (inactive).

And the GI50 (SF-539)?
The GI50 was 54 µM (inactive).

What about the GI50 (A549) of the same compound?
The GI50 was 29.9 µM (inactive).

And the GI50 (NCI-H23)?
Its GI50 is 22.9 µM (inactive).

What about the GI50 (Hs-578T) of the same compound?
The GI50 was 27 µM (inactive).

What about the GI50 (A498) of the same compound?
Its GI50 is 86.1 µM (inactive).

What about the GI50 (HOP-62) of the same compound?
Its GI50 is 33.1 µM (inactive).

And the GI50 (IGROV-1)?
The GI50 was 13.2 µM (inactive).

And the GI50 (OVCAR-5)?
Its GI50 is 34.4 µM (inactive).

What about the GI50 (HT-29) of the same compound?
Its GI50 is 27 µM (inactive).

And the GI50 (SR)?
The GI50 was 19.5 µM (inactive).

What about the GI50 (NCI-H460) of the same compound?
The GI50 was 20.7 µM (inactive).

And the GI50 (OVCAR-4)?
Its GI50 is 27.6 µM (inactive).

And the GI50 (OVCAR-3)?
Its GI50 is 32.9 µM (inactive).

What about the GI50 (HOP-92) of the same compound?
Its GI50 is 19.4 µM (inactive).

And the GI50 (MCF7)?
Its GI50 is 40.8 µM (inactive).

And the GI50 (TK-10)?
Its GI50 is 77.6 µM (inactive).

What about the GI50 (HCT-15) of the same compound?
Its GI50 is 32.8 µM.

And the GI50 (SF-295)?
The GI50 was 30.9 µM (inactive).

And the GI50 (SK-MEL-28)?
The GI50 was 52.4 µM (inactive).

And the GI50 (MOLT-4)?
The GI50 was 15.5 µM (inactive).

And the GI50 (EKVX)?
The GI50 was 16.4 µM (inactive).

What about the GI50 (HL-60) of the same compound?
The GI50 was 16 µM (inactive).

And the GI50 (HCT-116)?
Its GI50 is 19.5 µM (inactive).

What about the GI50 (PC-3) of the same compound?
The GI50 was 30.4 µM (inactive).

What about the GI50 (NCI/ADR-RES) of the same compound?
The GI50 was 27.7 µM (inactive).

And the GI50 (SF-268)?
Its GI50 is 35.6 µM (inactive).

What about the GI50 (UO-31) of the same compound?
The GI50 was 15.5 µM (inactive).

What about the GI50 (MDA-MB-435) of the same compound?
Its GI50 is 19.5 µM (inactive).

What about the GI50 (SK-MEL-2) of the same compound?
The GI50 was 23.3 µM (inactive).

What about the GI50 (RXF 393) of the same compound?
The GI50 was 30.2 µM (inactive).

What about the GI50 (OVCAR-8) of the same compound?
Its GI50 is 29.2 µM (inactive).

What about the GI50 (HCC 2998) of the same compound?
Its GI50 is 23.9 µM (inactive).

What about the GI50 (DU-145) of the same compound?
Its GI50 is 44.7 µM (inactive).

What about the GI50 (MDA-N) of the same compound?
The GI50 was 18.6 µM (inactive).

And the GI50 (NCI-H226)?
The GI50 was 33 µM (inactive).

What about the GI50 (NCI-H522) of the same compound?
Its GI50 is 17.6 µM (inactive).

What about the GI50 (COLO 205) of the same compound?
The GI50 was 22.3 µM (inactive).

What about the GI50 (UACC-62) of the same compound?
The GI50 was 39.4 µM (inactive).

And the GI50 (SK-MEL-5)?
Its GI50 is 16.3 µM (inactive).

Which GI50 (UACC-257) does the source give for `N#Cc1nc(C2CCC(=O)O2)oc1N` (stereo not drawn) here?
The GI50 was > 100 µM (inactive).

What about the GI50 (786-0) of the same compound?
Its GI50 is > 100 µM (inactive).

And the GI50 (SN12C)?
Its GI50 is > 100 µM (inactive).

And the GI50 (MDA-MB-231)?
The GI50 was > 100 µM (inactive).

What about the GI50 (M14) of the same compound?
Its GI50 is > 100 µM (inactive).

And the GI50 (RPMI-8226)?
Its GI50 is > 100 µM (inactive).

And the GI50 (SNB-19)?
The GI50 was > 100 µM (inactive).

What about the GI50 (CAKI-1) of the same compound?
Its GI50 is > 100 µM (inactive).

And the GI50 (Malme-3M)?
The GI50 was 13.4 µM (inactive).

What about the GI50 (ACHN) of the same compound?
The GI50 was > 100 µM (inactive).

What about the GI50 (KM12) of the same compound?
Its GI50 is > 100 µM (inactive).

And the GI50 (BT-549)?
Its GI50 is > 100 µM (inactive).

And the GI50 (CCRF-CEM)?
The GI50 was > 100 µM (inactive).

And the GI50 (U-251)?
Its GI50 is > 100 µM (inactive).

And the GI50 (LOX IMVI)?
Its GI50 is 72.9 µM (inactive).

What about the GI50 (SW-620) of the same compound?
The GI50 was > 100 µM (inactive).

What about the GI50 (K562) of the same compound?
Its GI50 is > 100 µM (inactive).

What about the GI50 (SF-539) of the same compound?
Its GI50 is > 100 µM (inactive).

What about the GI50 (SK-OV-3) of the same compound?
Its GI50 is > 100 µM (inactive).

What about the GI50 (NCI-H23) of the same compound?
Its GI50 is > 100 µM (inactive).

What about the GI50 (Hs-578T) of the same compound?
Its GI50 is > 100 µM (inactive).

What about the GI50 (A498) of the same compound?
The GI50 was > 100 µM (inactive).

What about the GI50 (HOP-62) of the same compound?
The GI50 was > 100 µM (inactive).

And the GI50 (IGROV-1)?
Its GI50 is > 100 µM (inactive).

What about the GI50 (OVCAR-5) of the same compound?
Its GI50 is > 100 µM (inactive).

What about the GI50 (HT-29) of the same compound?
Its GI50 is > 100 µM (inactive).

And the GI50 (SR)?
The GI50 was > 100 µM (inactive).

And the GI50 (NCI-H460)?
Its GI50 is > 100 µM (inactive).

What about the GI50 (SNB-75) of the same compound?
The GI50 was 29 µM (inactive).

What about the GI50 (OVCAR-3) of the same compound?
Its GI50 is > 100 µM (inactive).

What about the GI50 (MCF7) of the same compound?
Its GI50 is > 100 µM (inactive).

And the GI50 (TK-10)?
The GI50 was > 100 µM (inactive).

What about the GI50 (HCT-15) of the same compound?
The GI50 was over 100 µM.

What about the GI50 (SF-295) of the same compound?
Its GI50 is > 100 µM (inactive).

And the GI50 (SK-MEL-28)?
The GI50 was > 100 µM (inactive).

And the GI50 (MOLT-4)?
Its GI50 is > 100 µM (inactive).

What about the GI50 (EKVX) of the same compound?
The GI50 was > 100 µM (inactive).

What about the GI50 (HL-60) of the same compound?
The GI50 was > 100 µM (inactive).

And the GI50 (HCT-116)?
The GI50 was 83 µM (inactive).

And the GI50 (PC-3)?
Its GI50 is > 100 µM (inactive).

And the GI50 (NCI/ADR-RES)?
The GI50 was > 100 µM (inactive).

What about the GI50 (SF-268) of the same compound?
The GI50 was > 100 µM (inactive).

And the GI50 (UO-31)?
Its GI50 is > 100 µM (inactive).

And the GI50 (MDA-MB-435)?
Its GI50 is > 100 µM (inactive).

And the GI50 (SK-MEL-2)?
The GI50 was > 100 µM (inactive).

And the GI50 (RXF 393)?
The GI50 was > 100 µM (inactive).

And the GI50 (OVCAR-8)?
The GI50 was > 100 µM (inactive).

And the GI50 (DU-145)?
The GI50 was > 100 µM (inactive).

What about the GI50 (MDA-N) of the same compound?
Its GI50 is > 100 µM (inactive).

What about the GI50 (NCI-H226) of the same compound?
Its GI50 is > 100 µM (inactive).

What about the GI50 (COLO 205) of the same compound?
Its GI50 is > 100 µM (inactive).

What about the GI50 (UACC-62) of the same compound?
Its GI50 is > 100 µM (inactive).

What about the GI50 (SK-MEL-5) of the same compound?
The GI50 was > 100 µM (inactive).
